Measurements as given in a compilation of properties of binary mixtures (doi:10.1016/j.molliq.2016.11.066).

Test: xn = mol fraction of the nth substance listed
Details: 101 kPa

COCCO + CCCC[n+]1ccn(C)c1.F[P-](F)(F)(F)(F)F
x2 = 0
Details | speed of sound [m/s]
298.15 K | 1342.1
303.15 K | 1324.7
308.15 K | 1307.4
313.15 K | 1290.1
318.15 K | 1272.7
323.15 K | 1255.4

CCCC[n+]1ccn(C)c1.F[P-](F)(F)(F)(F)F + COCCO
speed of sound [m/s]
Details | x1 = 0.0966 | x1 = 0.1943 | x1 = 0.2887 | x1 = 0.3979 | x1 = 0.4792 | x1 = 0.5943 | x1 = 0.6753 | x1 = 0.8101 | x1 = 0.8849 | x1 = 1
298.15 K | 1365.5 | 1384.8 | – | 1407.6 | 1414.1 | – | 1427.3 | 1435.2 | – | 1443.8
303.15 K | 1349.4 | 1369.8 | 1383.3 | – | 1401.4 | 1409.8 | 1414.9 | 1422.8 | – | 1431.7
308.15 K | 1333.3 | 1354.5 | 1369 | – | 1388.8 | 1397.5 | – | 1411 | 1414.9 | 1419.8
313.15 K | 1317.6 | 1339.6 | 1355.1 | 1368.2 | 1376 | 1385.6 | – | 1399.3 | 1403.1 | 1408.2
318.15 K | 1301.5 | 1324.7 | 1341.4 | – | 1363.7 | 1373.6 | – | 1388 | 1391.8 | –
323.15 K | 1285.5 | 1310.1 | 1327.8 | 1343 | 1352.2 | 1362.1 | 1368.3 | 1377.2 | – | 1385.6
